Data from doi:10.1101/2023.11.24.568596v1 (biorxiv, 2023).
Blank lines part the entries; values can stand above or below the molecule they belong to.

Assays:
Conditions in all cases: binder
BMX = target: T1, BMX (Homo sapiens, UniProt P51813)
T1 sequence (P51813 1-675): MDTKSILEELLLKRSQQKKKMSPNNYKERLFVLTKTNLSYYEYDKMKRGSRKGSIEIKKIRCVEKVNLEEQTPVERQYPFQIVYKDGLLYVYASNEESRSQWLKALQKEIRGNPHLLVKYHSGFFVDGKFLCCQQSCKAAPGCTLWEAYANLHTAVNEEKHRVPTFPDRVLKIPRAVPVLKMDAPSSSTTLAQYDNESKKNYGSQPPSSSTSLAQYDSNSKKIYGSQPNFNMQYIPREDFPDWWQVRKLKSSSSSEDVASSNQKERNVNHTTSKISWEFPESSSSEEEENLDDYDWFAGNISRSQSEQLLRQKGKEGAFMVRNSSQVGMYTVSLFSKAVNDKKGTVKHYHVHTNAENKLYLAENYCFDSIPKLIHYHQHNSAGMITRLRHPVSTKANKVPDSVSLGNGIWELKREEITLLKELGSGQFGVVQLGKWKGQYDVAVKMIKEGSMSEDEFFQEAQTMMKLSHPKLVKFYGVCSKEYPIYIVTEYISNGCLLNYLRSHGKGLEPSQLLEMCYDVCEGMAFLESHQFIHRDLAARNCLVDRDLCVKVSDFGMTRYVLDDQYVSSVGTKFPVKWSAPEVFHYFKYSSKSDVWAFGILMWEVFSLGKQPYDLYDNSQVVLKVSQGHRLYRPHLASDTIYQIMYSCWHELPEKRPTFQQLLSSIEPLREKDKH

CK1d = CK1d (Homo sapiens, UniProt P48730)
CK1d, sequence (P48730 whole entry): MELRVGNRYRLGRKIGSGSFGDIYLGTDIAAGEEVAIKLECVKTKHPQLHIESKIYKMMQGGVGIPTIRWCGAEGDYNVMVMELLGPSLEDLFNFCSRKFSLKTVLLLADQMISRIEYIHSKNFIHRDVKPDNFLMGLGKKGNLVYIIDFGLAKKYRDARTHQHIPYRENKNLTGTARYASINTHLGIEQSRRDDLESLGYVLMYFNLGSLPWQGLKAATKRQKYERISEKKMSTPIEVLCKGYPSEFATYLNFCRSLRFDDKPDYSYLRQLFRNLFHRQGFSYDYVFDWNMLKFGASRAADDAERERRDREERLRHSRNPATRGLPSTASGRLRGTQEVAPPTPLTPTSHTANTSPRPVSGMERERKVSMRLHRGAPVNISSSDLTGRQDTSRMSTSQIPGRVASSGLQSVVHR

GAK = target: T2, GAK (Homo sapiens, UniProt O14976)
T2 sequence (O14976 1-1311): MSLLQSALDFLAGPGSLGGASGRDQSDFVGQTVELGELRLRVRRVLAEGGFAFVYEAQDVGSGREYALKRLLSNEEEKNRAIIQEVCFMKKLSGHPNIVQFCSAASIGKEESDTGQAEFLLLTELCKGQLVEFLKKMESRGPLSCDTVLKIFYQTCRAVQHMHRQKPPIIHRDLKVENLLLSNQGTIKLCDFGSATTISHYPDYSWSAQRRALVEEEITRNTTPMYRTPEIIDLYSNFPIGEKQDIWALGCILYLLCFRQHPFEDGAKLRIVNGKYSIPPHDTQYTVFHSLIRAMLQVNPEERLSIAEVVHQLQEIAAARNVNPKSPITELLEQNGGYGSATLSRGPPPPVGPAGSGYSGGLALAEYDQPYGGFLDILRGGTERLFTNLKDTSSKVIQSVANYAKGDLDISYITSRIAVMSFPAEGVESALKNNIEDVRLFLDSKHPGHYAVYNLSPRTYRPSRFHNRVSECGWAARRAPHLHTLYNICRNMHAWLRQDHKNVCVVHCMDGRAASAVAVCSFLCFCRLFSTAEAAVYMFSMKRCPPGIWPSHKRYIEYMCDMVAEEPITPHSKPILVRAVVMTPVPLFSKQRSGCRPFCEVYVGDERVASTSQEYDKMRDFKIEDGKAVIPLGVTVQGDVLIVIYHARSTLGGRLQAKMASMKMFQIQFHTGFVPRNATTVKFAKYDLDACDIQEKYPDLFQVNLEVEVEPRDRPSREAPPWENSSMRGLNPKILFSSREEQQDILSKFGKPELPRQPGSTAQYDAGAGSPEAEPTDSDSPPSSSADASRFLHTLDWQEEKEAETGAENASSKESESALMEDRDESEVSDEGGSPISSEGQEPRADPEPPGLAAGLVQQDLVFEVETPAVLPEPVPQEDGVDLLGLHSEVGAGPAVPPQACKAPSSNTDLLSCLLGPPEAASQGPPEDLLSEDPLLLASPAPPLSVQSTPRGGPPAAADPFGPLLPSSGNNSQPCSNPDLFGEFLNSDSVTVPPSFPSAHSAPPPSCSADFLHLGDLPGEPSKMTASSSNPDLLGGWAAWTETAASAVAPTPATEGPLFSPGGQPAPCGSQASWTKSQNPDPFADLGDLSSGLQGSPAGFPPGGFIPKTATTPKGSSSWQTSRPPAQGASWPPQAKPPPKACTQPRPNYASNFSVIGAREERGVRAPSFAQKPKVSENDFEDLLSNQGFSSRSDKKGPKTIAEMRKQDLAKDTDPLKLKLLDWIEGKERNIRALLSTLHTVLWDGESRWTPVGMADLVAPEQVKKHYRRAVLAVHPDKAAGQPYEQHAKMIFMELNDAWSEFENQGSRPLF

NQO2A = target: T3, NQO2A (Homo sapiens, UniProt P16083)
T3 sequence (P16083 1-231): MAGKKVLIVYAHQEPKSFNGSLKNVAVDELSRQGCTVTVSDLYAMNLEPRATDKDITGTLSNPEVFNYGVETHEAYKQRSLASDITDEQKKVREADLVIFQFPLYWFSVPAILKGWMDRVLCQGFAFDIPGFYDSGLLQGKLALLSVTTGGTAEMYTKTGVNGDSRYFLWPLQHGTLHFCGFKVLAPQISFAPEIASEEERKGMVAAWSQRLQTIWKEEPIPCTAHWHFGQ

FES = FES (Homo sapiens, UniProt P07332)
FES, sequence (P07332 whole entry): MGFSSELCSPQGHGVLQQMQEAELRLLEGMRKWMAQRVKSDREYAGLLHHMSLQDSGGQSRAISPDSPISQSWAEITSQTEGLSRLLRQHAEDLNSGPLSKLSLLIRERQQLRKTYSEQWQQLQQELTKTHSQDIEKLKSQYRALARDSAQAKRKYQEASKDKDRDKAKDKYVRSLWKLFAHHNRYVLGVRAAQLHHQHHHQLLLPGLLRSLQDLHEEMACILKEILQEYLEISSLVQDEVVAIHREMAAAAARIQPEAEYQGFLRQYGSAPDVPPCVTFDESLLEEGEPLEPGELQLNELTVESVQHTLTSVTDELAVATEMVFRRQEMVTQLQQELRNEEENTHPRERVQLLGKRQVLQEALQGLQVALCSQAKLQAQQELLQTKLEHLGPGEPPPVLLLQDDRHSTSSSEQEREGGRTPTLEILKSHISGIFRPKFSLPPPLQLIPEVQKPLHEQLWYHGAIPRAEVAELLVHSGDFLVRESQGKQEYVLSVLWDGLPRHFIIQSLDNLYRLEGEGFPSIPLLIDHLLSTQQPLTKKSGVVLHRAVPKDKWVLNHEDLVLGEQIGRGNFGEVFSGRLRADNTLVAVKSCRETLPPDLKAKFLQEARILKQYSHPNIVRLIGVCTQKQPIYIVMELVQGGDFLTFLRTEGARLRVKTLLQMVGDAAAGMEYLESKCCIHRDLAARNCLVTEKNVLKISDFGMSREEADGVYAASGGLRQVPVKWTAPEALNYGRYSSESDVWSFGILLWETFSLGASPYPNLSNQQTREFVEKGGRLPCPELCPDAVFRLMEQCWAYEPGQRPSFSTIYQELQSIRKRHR

MST3 = MST3 (Homo sapiens, UniProt Q9Y6E0)
MST3, sequence (Q9Y6E0 whole entry): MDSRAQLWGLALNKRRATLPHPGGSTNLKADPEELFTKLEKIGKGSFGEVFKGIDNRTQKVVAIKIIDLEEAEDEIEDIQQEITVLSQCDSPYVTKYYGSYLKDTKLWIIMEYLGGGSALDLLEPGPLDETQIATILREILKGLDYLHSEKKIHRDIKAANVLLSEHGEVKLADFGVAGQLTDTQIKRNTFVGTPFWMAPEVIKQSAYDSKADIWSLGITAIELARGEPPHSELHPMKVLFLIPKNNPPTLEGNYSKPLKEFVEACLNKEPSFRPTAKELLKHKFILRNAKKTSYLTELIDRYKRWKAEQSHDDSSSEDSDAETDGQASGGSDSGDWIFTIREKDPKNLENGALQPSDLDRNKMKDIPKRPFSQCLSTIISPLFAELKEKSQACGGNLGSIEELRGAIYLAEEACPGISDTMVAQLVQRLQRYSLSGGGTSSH

MAP2K6 = target: T4, MAP2K6 (Homo sapiens, UniProt P52564)
T4 sequence (P52564 1-334): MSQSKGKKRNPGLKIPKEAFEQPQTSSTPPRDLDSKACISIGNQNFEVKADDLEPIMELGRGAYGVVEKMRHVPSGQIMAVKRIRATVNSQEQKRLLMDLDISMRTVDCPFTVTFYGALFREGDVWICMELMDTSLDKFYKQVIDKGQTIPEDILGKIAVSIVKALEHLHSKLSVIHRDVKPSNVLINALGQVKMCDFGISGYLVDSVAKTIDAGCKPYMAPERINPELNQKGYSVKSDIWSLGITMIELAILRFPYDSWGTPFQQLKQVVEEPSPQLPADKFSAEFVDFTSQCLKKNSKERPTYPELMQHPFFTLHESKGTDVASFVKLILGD

Compound: Cc1cccc(-c2ccc(-c3cc4cnc(NCCCN5CCCC5=O)nc4n(CCCCN)c3=O)c(Cl)c2)n1 [compound 27, MR30]
ΔTm MR30 (27) (BMX): 1.7 °C
ΔTm MR30 (27) (CK1d): 1.6 °C
ΔTm MR30 (27) (GAK): 4.3 °C
ΔTm MR30 (27) (NQO2A): 0.5 °C
ΔTm MR30 (27) (FES): 5.0 °C
ΔTm MR30 (27) (MST3): 9.8 °C
ΔTm MR30 (27) (MAP2K6): 4.1 °C

Compound: Cc1cccc(-c2ccc(-c3cc4cnc(Nc5cc(C(F)(F)F)ccc5C)nc4n(CCCCN)c3=O)c(Cl)c2)n1 [compound 28, 8-(4-Aminobutyl)-6-(2-chloro-4-(6-methylpyridin-2-yl)phenyl)-2-((2-methyl-5-(trifluoromethyl)phenyl)amino)pyrido[2,3-d]pyrimidin-7(8H)-one]
ΔTm 28 (BMX): 3.1 °C
ΔTm 28 (CK1d): 1.4 °C
ΔTm 28 (GAK): 9.4 °C
ΔTm 28 (NQO2A): -0.7 °C
ΔTm 28 (FES): 8.5 °C
ΔTm 28 (MST3): 12.1 °C
ΔTm 28 (MAP2K6): 7.5 °C

Compound: Cc1cccc(-c2ccc(-c3cc4cnc(NCCCN5CCNCC5)nc4n(CCCCN)c3=O)c(Cl)c2)n1 [compound 29, 8-(4-Aminobutyl)-6-(2-chloro-4-(6-methylpyridin-2-yl)phenyl)-2-((3-(piperazin-1-yl)propyl)amino)pyrido[2,3-d]pyrimidin-7(8H)-one]
ΔTm 29 (BMX): 2.1 °C
ΔTm 29 (CK1d): 1.3 °C
ΔTm 29 (GAK): 4.2 °C
ΔTm 29 (NQO2A): 0.3 °C
ΔTm 29 (FES): 6.0 °C
ΔTm 29 (MST3): 14.3 °C
ΔTm 29 (MAP2K6): 1.9 °C

Results, then the molecule that gave them:

ΔTm 32 (BMX): 7.3 °C
ΔTm 32 (CK1d): 2.3 °C
ΔTm 32 (GAK): 13.3 °C
ΔTm 32 (NQO2A): -0.2 °C
ΔTm 32 (FES): 8.8 °C
ΔTm 32 (MST3): 15.4 °C
ΔTm 32 (MAP2K6): 8.9 °C
Compound: Cc1cccc(-c2ccc(-c3cc4cnc(Nc5ccc(C)c(O)c5)nc4n(CCCCN)c3=O)c(Cl)c2)n1 [compound 32, 8-(4-Aminobutyl)-6-(2-chloro-4-(6-methylpyridin-2-yl)phenyl)-2-((3-hydroxy-4-methylphenyl)amino)pyrido[2,3-d]pyrimidin-7(8H)-one]

ΔTm 31 (BMX): 7.0 °C
ΔTm 31 (CK1d): 2.8 °C
ΔTm 31 (GAK): 13.3 °C
ΔTm 31 (NQO2A): -0.3 °C
ΔTm 31 (FES): 8.7 °C
ΔTm 31 (MST3): 16.1 °C
ΔTm 31 (MAP2K6): 9.4 °C
Compound: Cc1cccc(-c2ccc(-c3cc4cnc(Nc5ccc(O)cc5)nc4n(CCCCN)c3=O)c(Cl)c2)n1 [compound 31, 8-(4-Aminobutyl)-6-(2-chloro-4-(6-methylpyridin-2-yl)phenyl)-2-((4-hydroxyphenyl)amino) pyrido[2,3-d]pyrimidin-7(8H)-one]

ΔTm 30 (BMX): 6.6 °C
ΔTm 30 (CK1d): 2.8 °C
ΔTm 30 (GAK): 13.2 °C
ΔTm 30 (NQO2A): -0.2 °C
ΔTm 30 (FES): 9.1 °C
ΔTm 30 (MST3): 15.5 °C
ΔTm 30 (MAP2K6): 9.4 °C
Compound: Cc1cccc(-c2ccc(-c3cc4cnc(Nc5ccc(CCCO)cc5)nc4n(CCCCN)c3=O)c(Cl)c2)n1 [compound 30, 8-(4-Aminobutyl)-6-(2-chloro-4-(6-methylpyridin-2-yl)phenyl)-2-((4-(3-hydroxypropyl)phenyl)amino)pyrido[2,3-d]pyrimidin-7(8H)-one]
